According to patent US20260200928A1, “THERAPEUTIC COMPOUNDS” (Sanofi, priority 2022, published 2026):

Biological target: T1, human IL-17A (Homo sapiens, UniProt Q16552)
T1 construct: purchased R&D Systems 7955-IL/CF
T1 sequence (Q16552 24-155): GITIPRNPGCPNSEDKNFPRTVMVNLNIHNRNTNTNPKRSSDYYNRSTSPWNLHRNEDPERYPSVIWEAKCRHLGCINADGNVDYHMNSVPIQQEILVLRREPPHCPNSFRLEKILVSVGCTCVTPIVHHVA
Test: IL-17A AlphaLISA competition assay (block of IL-17A binding to its receptor IL-17RA)
Settings: mean IC50 (n≥2), block of IL-17A binding to IL-17RA
Summary of the method: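 Human recombinant IL-17A (7.5 nM stock) pre-incubated 30 min at RT with compound, then IL-17RA/Fc (5 nM stock) added for 90 min; AlphaLISA read with anti-Fc acceptor beads, biotinylated anti-IL-17A antibody (5 nM) and streptavidin donor beads (3 h, dark). IC50 from 4-parameter logistic fit, normalised to DMSO and 4 μM reference inhibitor; n≥2.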

Compound | IC50
COC[C@H](c1ccnc(NC(=O)[C@@H](NC(=O)c2nonc2C(C)C)C2CCC(F)(F)CC2)c1)N1C[C@@H](C(F)(F)F)NC1=O [Example 195, N-((S)-1-(4,4-difluorocyclohexyl)-2-((4-((S)-2-methoxy-1-((S)-2-oxo-4-(trifluoromethyl)imidazolidin-1-yl)ethyl)pyridin-2-yl)amino)-2-oxoethyl)-4-isopropyl-1,2,5-oxadiazole-3-carboxamide] | 18 nM
O=C(N[C@H](C(=O)Nc1cc(CN2C[C@@H](C(F)(F)F)NC2=O)ccn1)C1CCC(F)(F)CC1)c1nonc1C1CC1 [Example 8, 4-cyclopropyl-N-((S)-1-(4,4-difluorocyclohexyl)-2-oxo-2-((4-(((S)-2-oxo-4-(trifluoromethyl)imidazolidin-1-yl)methyl)pyridin-2-yl)amino)ethyl)-1,2,5-oxadiazole-3-carboxamide] | 141 nM
Cn1nccc1C(=O)N[C@H](C(=O)Nc1cc(CN2C[C@@H](C(F)(F)F)NC2=O)ccn1)[C@H]1CC[C@H](C)CC1 [Example 3, 1-Methyl-N—((S)-1-((1r,4S)-4-methylcyclohexyl)-2-oxo-2-((4-(((S)-2-oxo-4-(trifluoromethyl)imidazolidin-1-yl)methyl)pyridin-2-yl)amino)ethyl)-1H-pyrazole-5-carboxamide] | 85 nM
CCc1nonc1C(=O)N[C@H](C(=O)Nc1cc(C[C@H]2C[C@@H](C(F)(F)F)NC2=O)ccn1)C1CCC(F)(F)CC1 [Example 220, N-((S)-1-(4,4-difluorocyclohexyl)-2-oxo-2-((4-(((3S,5S)-2-oxo-5-(trifluoromethyl)pyrrolidin-3-yl)methyl)pyridin-2-yl)amino)ethyl)-4-ethyl-1,2,5-oxadiazole-3-carboxamide] | 48 nM
Cc1nonc1C(=O)N[C@H](C(=O)Nc1cc(CN2C[C@@H](C(F)(F)F)NC2=O)ccn1)[C@@H](C)OC(C)(C)C [Example 128, N-((2S,3R)-3-(tert-butoxy)-1-oxo-1-((4-(((S)-2-oxo-4-(trifluoromethyl)-imidazolidin-1-yl)methyl)-pyridin-2-yl)amino)butan-2-yl)-4-methyl-1,2,5-oxa-diazole-3-carboxamide] | 2350 nM
Cn1nccc1C(=O)NC(C(=O)Nc1cc(CN2CC(C(F)(F)F)NC2=O)ccn1)C1CCC(F)CC1 [Example 294, N-((S)-1-((1r,4S)-4-fluorocyclohexyl)-2-oxo-2-((4-(((S)-2-oxo-4-(trifluoromethyl)imidazolidin-1-yl)methyl)pyridin-2-yl)amino)ethyl)-1-methyl-1H-pyrazole-5-carboxamide] | 374 nM
CCn1nccc1C(=O)N[C@H](C(=O)Nc1cc([C@@H](COC)N2C[C@@H](C(F)(F)F)NC2=O)ccn1)C1CCC(F)(F)CC1 [Example 201, N-((S)-1-(4,4-difluorocyclohexyl)-2-((4-((S)-2-methoxy-1-((S)-2-oxo-4-(trifluoromethyl)imidazolidin-1-yl)ethyl)pyridin-2-yl)amino)-2-oxoethyl)-1-ethyl-1H-pyrazole-5-carboxamide] | 70 nM
CCc1conc1C(=O)N[C@H](C(=O)Nc1cc([C@@H](COC)N2C[C@@H](C(F)(F)F)NC2=O)ccn1)C1CC(F)(F)C1 [Example 261, N—((S)-1-(3,3-difluorocyclobutyl)-2-((4-((S)-2-methoxy-1-((S)-2-oxo-4-(trifluoromethyl)imidazolidin-1-yl)ethyl)pyridin-2-yl)amino)-2-oxoethyl)-4-ethylisoxazole-3-carboxamide] | 189 nM
COCC(c1ccnc(NC(=O)[C@@H](NC(=O)c2cnc(C)nc2C(F)(F)F)[C@H]2CC[C@H](C)CC2)c1)N1C[C@@H](C(F)(F)F)NC1=O (mixture of isomers) [Example 90, N-((1S)-2-((4-(2-methoxy-1-((RS)-2-oxo-4-(trifluoromethyl)imidazolidin-1-yl)ethyl)pyridin-2-yl)amino)-1-((1r,4S)-4-methylcyclohexyl)-2-oxoethyl)-2-methyl-4-(trifluoromethyl)pyrimidine-5-carboxamide] | 4520 nM
COC[C@H](c1ccnc(NC(=O)[C@@H](NC(=O)c2nonc2C)C2CCC(Cl)CC2)c1)N1C[C@@H](C(F)(F)F)NC1=O (stereo partly drawn) [Example 315, N-((1S)-1-(4-chlorocyclohexyl)-2-((4-((S)-2-methoxy-1-((S)-2-oxo-4-(trifluoromethyl)imidazolidin-1-yl)ethyl)pyridin-2-yl)amino)-2-oxoethyl)-4-methyl-1,2,5-oxadiazole-3-carboxamide] | 90 nM
C[C@H]1CC[C@H]([C@H](NC(=O)c2nonc2C2CC2)C(=O)Nc2cc(C[C@@H]3C[C@@H](C(F)(F)F)NC3=O)ccn2)CC1 [Example 152, 4-cyclopropyl-N—((S)-1-((1r,4S)-4-methylcyclohexyl)-2-oxo-2-((4-(((3R,5S)-2-oxo-5-(trifluoromethyl)pyrrolidin-3-yl)methyl)pyridin-2-yl)amino)ethyl)-1,2,5-oxadiazole-3-carboxamide] | 2030 nM
COC[C@H](c1ccnc(NC(=O)[C@H](COC(C)(C)C(F)(F)F)NC(=O)c2nocc2C)c1)N1C[C@@H](C(F)(F)F)NC1=O [Example 265, N—((S)-1-((4-((S)-2-methoxy-1-((S)-2-oxo-4-(trifluoromethyl)-imidazolidin-1-yl)ethyl)pyridin-2-yl)amino)-1-oxo-3-((1,1,1-trifluoro-2-methylpropan-2-yl)oxy)propan-2-yl)-4-methylisoxazole-3-carboxamide] | 45 nM
CC(C)(C)OCC(NC(=O)c1nonc1C1CC1)C(=O)Nc1cc(CN2C[C@@H](C(F)(F)F)NC2=O)ccn1 (stereo partly drawn) [Example 82, N-(3-(tert-butoxy)-1-oxo-1-((4-(((S)-2-oxo-4-(trifluoromethyl)imidazolidin-1-yl)methyl)pyridin-2-yl)amino)propan-2-yl)-4-cyclopropyl-1,2,5-oxadiazole-3-carboxamide] | 1170 nM
COCC(NC(=O)CCC(F)(F)F)c1ccnc(NC(=O)[C@@H](NC(=O)c2ccnn2C2CC2)C2CCC(F)(F)CC2)c1 (single isomer, unassigned) [Example 146] | 4450 nM
COCC(c1ccnc(NC(=O)[C@@H](NC(=O)c2nccn2C)[C@H]2CC[C@H](C)CC2)c1)N1C[C@@H](C(F)(F)F)NC1=O (single isomer, unassigned) [Example 112] | 381 nM
4-ethyl-N-(1-(4-fluorocyclohexyl)-2-((4-((S)-2-methoxy-1-((S)-2-oxo-4-(trifluoromethyl)imidazolidin-1-yl)ethyl)pyridin-2-yl)amino)-2-oxoethyl)-1,2,5-oxadiazole-3-carboxamide [Example 285] | 17 nM
CC1(C)CN(Cc2ccnc(NC(=O)[C@@H](NC(=O)c3nonc3C3CC3)[C@H]3CC[C@H](C)CC3)c2)C(=O)N1 [Example 25, 4-Cyclopropyl-N—((S)-2-((4-((4,4-dimethyl-2-oxoimidazolidin-1-yl)methyl)pyridin-2-yl)amino)-1-((1r,4S)-4-methylcyclohexyl)-2-oxoethyl)-1,2,5-oxadiazole-3-carboxamide] | 105 nM
CCc1nocc1C(=O)N[C@H](C(=O)Nc1cc(C(C)(C)N2C[C@@H](C(F)(F)F)NC2=O)ccn1)C1CCC(F)(F)CC1 [Example 173, N-((S)-1-(4,4-difluorocyclohexyl)-2-oxo-2-((4-(2-((S)-2-oxo-4-(trifluoromethyl)imidazolidin-1-yl)propan-2-yl)pyridin-2-yl)amino)ethyl)-3-ethylisoxazole-4-carboxamide] | 187 nM
COCC(NC(=O)CCC(F)(F)F)c1ccnc(NC(=O)[C@@H](NC(=O)c2nccn2C)C2CCC(F)(F)CC2)c1 (single isomer, unassigned) [Example 140] | 7370 nM
CC(C)(C)OC(=O)N[C@H](C(=O)Nc1cc(COC(=O)NCC(F)(F)F)ccn1)C1CCC(F)(F)CC1 [Example 45, Tert-butyl (S)-(1-(4,4-difluorocyclohexyl)-2-oxo-2-((4-((((2,2,2-trifluoroethyl)carbamoyl)oxy)methyl)pyridin-2-yl)amino)ethyl)carbamate] | 10300 nM
COCC(c1ccnc(NC(=O)[C@@H](NC(=O)c2nnnn2C)[C@H]2CC[C@H](C)CC2)c1)N1C[C@@H](C(F)(F)F)NC1=O (single isomer, unassigned) [Example 93] | 341 nM
Cn1nccc1C(=O)N[C@H](C(=O)Nc1cc(C(NC(=O)CCC(F)(F)F)C2CC2)ccn1)C(C1CC1)C1CC1 (single isomer, unassigned) [Example 42] | 524 nM
CC(C)n1nccc1C(=O)N[C@H](C(=O)Nc1cc(CN2C[C@@H](C(F)(F)F)NC2=O)c(F)cn1)[C@H]1CC[C@H](C)CC1 [Example 63, N-((S)-2-((5-fluoro-4-(((S)-2-oxo-4-(trifluoromethyl)-imidazolidin-1-yl)methyl)-pyridin-2-yl)amino)-1-((1r,4S)-4-methylcyclo-hexyl)-2-oxoethyl)-1-isopropyl-1H-pyrazole-5-carboxamide] | 330 nM
COC[C@H](c1ccnc(NC(=O)C(NC(=O)c2nonc2C)C2CCC(C)(F)CC2)c1)N1C[C@@H](C(F)(F)F)NC1=O (single isomer, unassigned) [Example 298] | 85 nM
CCc1nocc1C(=O)N[C@H](C(=O)Nc1cc(C(NC(=O)CCC(F)(F)F)C2CC2)ccn1)C(C1CC1)C1CC1 (single isomer, unassigned) [Example 44] | 151 nM
CCc1conc1C(=O)NC(C(=O)Nc1cc([C@@H](C(C)C)N2C[C@@H](C(F)(F)F)NC2=O)ccn1)C1CCC(F)(F)CC1 (stereo in doubt) [Example 159, N—((S)-1-(4,4-difluorocyclohexyl)-2-((4-((R)-2-methyl-1-((S)-2-oxo-4-(trifluoromethyl)imidazolidin-1-yl)propyl)pyridin-2-yl)amino)-2-oxoethyl)-4-ethylisoxazole-3-carboxamide] | 30 nM
